Where two headings read alike, the source gives them in different places.
Test system: alkaline protease API-26 produced by Bacillus sp. SD 114 (FERM BP-5736)
Type: biochemical
Experimental: Add 50 μl of the enzyme solution diluted appropriately to 500 μl of 50 mM Atkins-Pantin borate buffer, pH10, and pre-incubate at 30° C. for 3 to 5 minutes. To this solution, add 500 μl of 2% Hammarsten*s casein solution, pH 10, and after 10 minutes, stop the reaction by adding 2 ml of trichloroacetic acid (TCA) solution (0.032 M TCA solution adjusted to pH 4 with acetate buffer). Leave at 30° C. for more than 10 minutes, and filter with paper filter No.2 (Toyo Roshi). To 1 ml of filtrate add 5 ml of 0.4 M sodium carbonate and 1 ml of phenol reagent diluted 6-fold with water. Leave at 30° C. for 20 minutes for coloring, and then determine the absorbance at 660 nm. The unit of the protease activity is described by the katal. One katal is defined as the activity that the protease reacting with casein as a substrate at pH 10 and at 30° C. produces a degradation product with the absorbance at 660 nm equivalent to one mole of tyrosine.
Effects of various inhibitors against this enzyme were investigated according to the following conditions and procedure:
A solution containing this enzyme at about 20 nkatal/ml in 50 mM borate buffer, pH 10 was prepared. To this solution, EDTA, p-mercuribenzoic acid (PCMV) or phenylmethanesulfonyl fluoride (PMSF) was added at a concentration shown in Table 4. After incubating at 30° C. for 30 minutes, the enzyme activity was determined.

Compound | Activity (relative activity, enzyme with no inhibitor = 100%) (pH 10) | Activity (relative activity, enzyme with no inhibitor = 100%) (PCMV 1 mM, 50 mM borate buffer pH 10, incubated at 30° C. for 30 minutes, enzyme about 20 nkatal/ml) [%]
O=C(O)CN(CCN(CC(=O)O)CC(=O)O)CC(=O)O [EDTA, ethylenediaminetetraacetic acid] | 99 | 
O=C(O)c1cc[c]([Hg][OH])cc1 [PCMV, p-mercuribenzoic acid] |  | 100
